Literature values in patent publication US7300768B2 (Saladax Biomedical Inc., priority 2004, dated 2007).

Conditions: imatinib and its salts; Gleevec package insert, Pindolia et al.

SMILES: Cc1ccc(NC(=O)c2ccc(CN3CCN(C)CC3)cc2)cc1Nc1nccc(-c2cccnc2)n1 [imatinib]
- degree of intra- and inter-individual pharmacokinetic variability: four fold
